Test results from publication PMC8979682, “Synthesis, Antioxidant, and Antidiabetic Activities of Ketone Derivatives of Succinimide” (Evidence-based Complementary and Alternative Medicine : eCAM, 2022).
≈ marks a conversion by molar mass, not a printed value.

Columns and labels:
ABTS scavenging activity = type: biochemical
Protocol: For the determination of the antioxidant activity of the synthesized compounds, the previously reported method for ABTS scavenging activity was used with slight modification. The stock solution of 2.4 mM of potassium per sulfate solution and 7 mM ABTS solution was prepared by mixing them in equal volumes for 16 h. The stock solution thus prepared was diluted using methyl alcohol to give absorption of 0.7 ± 0.02 units when studied at the wavelength of 734 nm using a spectrophotometer. Fresh ABTS solution was prepared for each ABTS scavenging assay. About 150 μL of the ABTS working solution was added to 50 μL of synthesized compounds and kept in darkness for 10 min. […] Methanol was used as blank, and standard ascorbic acid was run at the same time. The absorbance was calculated utilizing a microplate reader at 734 nm.

DPPH scavenging activity = type: biochemical
Protocol: The antioxidant assay of the synthesized compounds was conducted following the previously reported method. A freshly prepared DPPH solution (50 μL of 1.0 × 10^−3 M) was added in methyl alcohol. Methanol was used as a control in this experiment. The prepared mixture was subjected to incubation at 25°C for 30 min. A decrease in the DPPH free radical concentration was calculated using a spectrophotometer at a wavelength of 517 nm. After incubation ascorbic acid was used as a positive control. The antioxidant activity was determined as a percent (%) of inhibition using the formula given:(1) percent inhibition=absorbancecontrol−absorbancesample/absorbancecontrol×100.

α-amylase = test: in vitro α-amylase inhibition; type: biochemical
Protocol: The starch solution was added, following incubation of the mixture, and the reaction mixture thus prepared was kept in water bath at 100°C for some time. Microplate reader measured the intensity of the color at 656 nm. Following formula was used to determine percentage inhibition:(3) percent inhibition=absorbancecontrol−absorbancesample/absorbancecontrol×100.

mice = test: oral glucose tolerance test (OGTT); type: in vivo; settings: glucose 2 g/kg orally
Protocol: To perform OGTT mice fasted overnight were used including both control and treated mice. Glucose was administered orally at the dose of 2 g/kg against glibenclamide as standard drug. After administration of glucose, blood glucose level was calculated at time intervals of 0, 30, 60, and 120 min for assessment of the impact of exogenously given D-glucose on treated mice. OGTT was carried out 5 days before the completion of the study.
To perform OGTT, mice fasted overnight were used including both control and treated mice. Glucose was administered orally at the dose of 2 g/kg against glibenclamide as a standard drug. After administration of glucose, blood glucose level was calculated at time intervals of 0, 30, 60, and 120 min for assessment of the impact of exogenously given D-glucose on treated mice.

α-glucosidase = test: in vitro α-glucosidase inhibition; type: biochemical
Protocol: For in vitro α-glucosidase activity, samples were prepared by adding glucopyranoside to phosphate buffer solvent, and different concentrations of the synthesized compounds (31.25, 62.5, 125, 250, and 500 µg/ml), respectively, were added to this solution and then the enzyme glucosidase in distilled water (0.5 µg/ml) was also added to the above mixture. The reaction mixture thus prepared was subjected to incubation at 37°C for 20 minutes. The reaction was halted by adding HCl after incubation of the mixture. The intensity of the color was determined at 540 nm by spectrophotometer, and the formula given below was used for the determination of percent inhibition:(2) percent inhibition=absorbancecontrol−absorbancesample/absorbancecontrol×100.

[1] = system: diabetic mice (by alloxan); test: antidiabetic activity in diabetic mice (by alloxan); type: in vivo
Protocol: Alloxan was used for the induction of diabetes mellitus according to reported procedure. Recently prepared Alloxan (ALX) was injected intraperitoneally to animals, fasting for 16 h, at a single dose of (150 mg/kg). […] Only diabetic animals, having random blood glucose level more than 200 mg/dl, were selected for studies. All the experimental procedure were approved from the ethical committee department of pharmacy, University of Swabi via letter No; UOS-06/2021.
A total of 30 animals were used to determine the hypoglycemic effect of the synthesized derivatives of succinimide. The experimental animals were segregated in six groups […], having five (5) animals in each group. Group I was designated as normal group and was given normal saline I/P only. Group II was given Tween 80, and Group III was given standard drug (glibenclamide) after the induction of diabetes. Group IV, Group V, and Group VI were given the various doses of synthesized compounds, respectively. […]

O=C1CCCCC1C1CC(=O)N(Cc2ccccc2)C1=O (stereo not drawn) [BW2, Benzyl-3-(2-Oxocyclohexyl) Pyrrolidine-2,5-Dione]
IC50 (ABTS) (ABTS scavenging activity): 12.87 µg/mL (≈ 45.1 µM)
(%) ABTS inhibitions (ABTS scavenging activity; 31.25 µg/ml): 57.40 ± 0.76^∗∗∗ %
(%) ABTS inhibitions (ABTS scavenging activity; 62.50 µg/ml): 61.35 ± 0.51^∗∗∗ %
(%) ABTS inhibitions (ABTS scavenging activity; 125 µg/ml): 66.90 ± 0.96^∗∗∗ %
(%) ABTS inhibitions (ABTS scavenging activity; 250 µg/ml): 71.08 ± 0.47^∗∗∗ %
(%) ABTS inhibitions (ABTS scavenging activity; 500 µg/ml): 76.85 ± 2.24^∗∗∗ %
IC50 (DPPH) (DPPH scavenging activity): 12.81 µg/mL (≈ 44.9 µM)
(%) DPPH inhibitions (DPPH scavenging activity; 31.25 µg/ml): 56.65 ± 1.34^∗∗∗ %
(%) DPPH inhibitions (DPPH scavenging activity; 62.50 µg/ml): 61.58 ± 1.12^∗∗∗ %
(%) DPPH inhibitions (DPPH scavenging activity; 125 µg/ml): 66.40 ± 0.25^∗∗∗ %
(%) DPPH inhibitions (DPPH scavenging activity; 250 µg/ml): 71.67 ± 1.20^∗∗∗ %
(%) DPPH inhibitions (DPPH scavenging activity; 500 µg/ml): 75.09 ± 0.32^∗∗∗ %
IC50 (α-amylase) (α-amylase): 15.34 µg/mL (≈ 53.8 µM)
% inhibitions (α-amylase) (α-amylase; 31.25 µg/ml): 55.85 ± 0.17^∗∗∗ %
% inhibitions (α-amylase) (α-amylase; 62.50 µg/ml): 63.72 ± 0.11^∗∗∗ %
% inhibitions (α-amylase) (α-amylase; 125 µg/ml): 67.44 ± 0.15^∗∗∗ %
% inhibitions (α-amylase) (α-amylase; 250 µg/ml): 73.14 ± 0.49^∗∗∗ %
% inhibitions (α-amylase) (α-amylase; 500 µg/ml): 78.69 ± 0.14^∗∗∗ %
OGTT blood glucose, 0 minutes (mice; 0 minutes): 163.7 mg/dL
OGTT blood glucose, 30 minutes (mice; 30 minutes): 189.2 mg/dL
OGTT blood glucose, 60 minutes (mice; 60 minutes): 214.8 mg/dL
OGTT blood glucose, 120 minutes (mice; 120 minutes): 151.4 mg/dL
IC50 (α-glucosidase) (α-glucosidase): 10.81 µg/mL (≈ 37.9 µM)
% inhibitions (α-glucosidase) (α-glucosidase; 31.25 µg/ml): 62.44 ± 0.55^∗∗ %
% inhibitions (α-glucosidase) (α-glucosidase; 62.50 µg/ml): 68.47 ± 0.52^∗∗∗ %
% inhibitions (α-glucosidase) (α-glucosidase; 125 µg/ml): 74.39 ± 0.49^∗∗∗ %
% inhibitions (α-glucosidase) (α-glucosidase; 250 µg/ml): 81.34 ± 0.55^∗ %
% inhibitions (α-glucosidase) (α-glucosidase; 500 µg/ml): 87.36 ± 0.49^∗ %
Change in body weight ([1]; dose 31.25 μg/kg): −6.8 Gm
Decrease in blood glucose after 15 days ([1]; dose 31.25 μg/kg): 35 mg/dL
Blood glucose level, 0 day ([1]; dose 31.25 μg/kg): 452 mg/dL
Blood glucose level, 4th day ([1]; dose 31.25 μg/kg): 448 mg/dL
Blood glucose level, 7th day ([1]; dose 31.25 μg/kg): 431 mg/dL
Blood glucose level, 10th day ([1]; dose 31.25 μg/kg): 425 mg/dL
Blood glucose level, 15th day ([1]; dose 31.25 μg/kg): 417 mg/dL
Change in body weight ([1]; dose 62.5 μg/kg): −4.6 Gm
Decrease in blood glucose after 15 days ([1]; dose 62.5 μg/kg): 58 mg/dL
Blood glucose level, 0 day ([1]; dose 62.5 μg/kg): 386 mg/dL
Blood glucose level, 4th day ([1]; dose 62.5 μg/kg): 359 mg/dL
Blood glucose level, 7th day ([1]; dose 62.5 μg/kg): 349 mg/dL
Blood glucose level, 10th day ([1]; dose 62.5 μg/kg): 336 mg/dL
Blood glucose level, 15th day ([1]; dose 62.5 μg/kg): 328 mg/dL
Change in body weight ([1]; dose 125 μg/kg): −3.7 Gm
Decrease in blood glucose after 15 days ([1]; dose 125 μg/kg): 68 mg/dL
Blood glucose level, 0 day ([1]; dose 125 μg/kg): 437 mg/dL
Blood glucose level, 4th day ([1]; dose 125 μg/kg): 431 mg/dL
Blood glucose level, 7th day ([1]; dose 125 μg/kg): 422 mg/dL
Blood glucose level, 10th day ([1]; dose 125 μg/kg): 394 mg/dL
Blood glucose level, 15th day ([1]; dose 125 μg/kg): 369 mg/dL
Change in body weight ([1]; dose 250 μg/kg): +3.4 Gm
Decrease in blood glucose after 15 days ([1]; dose 250 μg/kg): 111 mg/dL
Blood glucose level, 0 day ([1]; dose 250 μg/kg): 466 mg/dL
Blood glucose level, 4th day ([1]; dose 250 μg/kg): 461 mg/dL
Blood glucose level, 7th day ([1]; dose 250 μg/kg): 443 mg/dL
Blood glucose level, 10th day ([1]; dose 250 μg/kg): 407 mg/dL
Blood glucose level, 15th day ([1]; dose 250 μg/kg): 355 mg/dL
Change in body weight ([1]; dose 500 μg/kg): +7.4 Gm
Decrease in blood glucose after 15 days ([1]; dose 500 μg/kg): 199 mg/dL
Blood glucose level, 0 day ([1]; dose 500 μg/kg): 456 mg/dL
Blood glucose level, 4th day ([1]; dose 500 μg/kg): 402 mg/dL
Blood glucose level, 7th day ([1]; dose 500 μg/kg): 361 mg/dL
Blood glucose level, 10th day ([1]; dose 500 μg/kg): 303 mg/dL
Blood glucose level, 15th day ([1]; dose 500 μg/kg): 257 mg/dL
